This is an account of results in ChEMBL document CHEMBL1127063, “NMR and computational evidence that high-affinity bradykinin receptor antagonists adopt C-terminal beta-turns” (J Med Chem, 1993).

One assay addresses T1, B2 bradykinin receptor (Cavia porcellus, UniProt O70526).
T1 sequence (O70526 whole entry): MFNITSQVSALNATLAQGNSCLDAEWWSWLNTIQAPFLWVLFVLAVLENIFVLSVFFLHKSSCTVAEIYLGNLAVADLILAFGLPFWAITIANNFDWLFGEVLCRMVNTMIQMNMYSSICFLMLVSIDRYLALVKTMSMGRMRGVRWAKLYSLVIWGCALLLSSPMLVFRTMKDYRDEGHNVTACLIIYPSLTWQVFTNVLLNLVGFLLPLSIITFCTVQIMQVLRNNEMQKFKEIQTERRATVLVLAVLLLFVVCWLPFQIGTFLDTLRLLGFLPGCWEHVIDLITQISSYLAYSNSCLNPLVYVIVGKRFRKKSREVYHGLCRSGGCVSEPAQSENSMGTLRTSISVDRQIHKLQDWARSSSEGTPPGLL
Kind of assay: In vitro binding affinity against bradykinin receptor B2 from guinea pig ileum. It counts as tissue-based.

The next assay is filed under the species Cavia porcellus. Nature of the assay: pA2 value against guinea pig ileum. It counts as functional. Particulars: read-out: pA2 (converted).

Molecules are shown by their SMILES.

For the compound `NC(N)=NCCC[C@@H](N)C(=O)N[C@@H](CCCN=C(N)N)C(=O)N1CCC[C@H]1C(=O)N1CCC[C@H]1C(=O)NCC(=O)N[C@@H](Cc1ccccc1)C(=O)N[C@@H](CO)C(=O)N[C@H](Cc1ccccc1)C(=O)N1C2CCCCC2C[C@H]1C(=O)N[C@@H](CCCN=C(N)N)C(=O)O` (stereo partly specified), at B2 bradykinin receptor, the Ki came to 0.75 nM. In addition, in the assay listed under Cavia porcellus, the Kb is 5.01 nM.
On the same counts, the results for `CCCO[C@H]1C[C@H](C(=O)N2[C@H](C(=O)N[C@@H](CCCNC(=N)N)C(=O)O)C[C@@H]3CCCC[C@@H]32)N(C(=O)[C@H](CO)NC(=O)[C@H](Cc2cccs2)NC(=O)CNC(=O)[C@@H]2C[C@@H](O)CN2C(=O)[C@@H]2CCCN2C(=O)[C@H](CCCNC(=N)N)NC(=O)[C@H](N)CCCNC(=N)N)C1` are 0.16 nM and 3.16 nM.
The corresponding values for `NC(N)=NCCC[C@@H](N)C(=O)N[C@@H](CCCN=C(N)N)C(=O)N1CCC[C@H]1C(=O)N1C[C@H](O)C[C@H]1C(=O)NCC(=O)N[C@@H](Cc1cccs1)C(=O)N[C@@H](CO)C(=O)N1Cc2ccccc2C[C@@H]1C(=O)N1[C@H](C(=O)N[C@@H](CCCN=C(N)N)C(=O)O)C[C@@H]2CCCC[C@@H]21` [ICATIBANT] are 0.11 nM and 2 nM.

By Ki is commonly meant the equilibrium dissociation constant of an inhibitor or competing ligand from its target.
